Laboratory results reported in ChEMBL document CHEMBL1275392, “Assessment of chemoselective neoglycosylation methods using chlorambucil as a model” (2010).

Key:
Assay type in all cases: functional
OVCAR-4 [1] = experiment: Growth inhibition of human OVCAR4 cells at 10 uM after 7 days by celltiter-glo assay; details: OVCAR-4, 168 h, read-out: GI
OVCAR-8 = experiment: Growth inhibition of human OVCAR8 cells at 10 uM after 7 days by celltiter-glo assay; details: OVCAR-8, 168 h, read-out: GI
KM12 = experiment: Growth inhibition of human KM12 cells at 10 uM after 7 days by celltiter-glo assay; details: KM12, 168 h, read-out: GI
OVCAR-5 = experiment: Growth inhibition of human OVCAR5 cells at 10 uM after 7 days by celltiter-glo assay; details: OVCAR-5, 168 h, read-out: GI
SK-MEL-5 = experiment: Growth inhibition of human SK-MEL-5 cells at 10 uM after 7 days by celltiter-glo assay; details: SK-MEL-5, 168 h, read-out: GI
EKVX [2] = experiment: Growth inhibition of human EKVX cells after 7 days by celltiter-glo assay; details: 168 h
M14 = experiment: Growth inhibition of human M14 cells after 7 days by celltiter-glo assay; details: M14, 168 h
NCI-H23 = experiment: Growth inhibition of human NCI-H23 cells at 10 uM after 7 days by celltiter-glo assay; details: NCI-H23, 168 h, read-out: GI
Malme-3M = experiment: Growth inhibition of human MALME-3M cells at 10 uM after 7 days by celltiter-glo assay; details: 168 h, read-out: GI
SW-620 [3] = experiment: Growth inhibition of human SW620 cells after 7 days by celltiter-glo assay; details: SW-620, 168 h
UACC-62 [4] = experiment: Growth inhibition of human UACC62 cells after 7 days by celltiter-glo assay; details: UACC-62, 168 h
NCI-H226 = experiment: Growth inhibition of human NCI-H226 cells after 7 days by celltiter-glo assay; details: NCI-H226, 168 h
NCI/ADR-RES = experiment: Growth inhibition of human NCI/ADR-RES cells at 10 uM after 7 days by celltiter-glo assay; details: 168 h, read-out: GI
HCT-116 = experiment: Growth inhibition of human HCT116 cells after 7 days by celltiter-glo assay; details: HCT-116, 168 h
SR = experiment: Growth inhibition of human SR cells after 7 days by celltiter-glo assay; details: 168 h
MDA-MB-468 = experiment: Growth inhibition of human MDA-MB-468 cells at 10 uM after 7 days by celltiter-glo assay; details: MDA-MB-468, 168 h, read-out: GI
SK-OV-3 [5] = experiment: Growth inhibition of human SKOV3 cells after 7 days by celltiter-glo assay; details: SK-OV-3, 168 h
OVCAR-3 = experiment: Growth inhibition of human OVCAR-3 cells after 7 days by celltiter-glo assay; details: OVCAR-3, 168 h
MOLT-4 [6] = experiment: Growth inhibition of human MOLT4 cells at 10 uM after 7 days by celltiter-glo assay; details: MOLT-4, 168 h, read-out: GI
SK-OV-3 [7] = experiment: Growth inhibition of human SKOV3 cells at 10 uM after 7 days by celltiter-glo assay; details: SK-OV-3, 168 h, read-out: GI
SNB-75 = experiment: Growth inhibition of human SNB75 cells after 7 days by celltiter-glo assay; details: SNB-75, 168 h
NCI-H322M = experiment: Growth inhibition of human NCI-H322M cells at 10 uM after 7 days by celltiter-glo assay; details: 168 h, read-out: GI
SNB-19 = experiment: Growth inhibition of human SNB19 cells at 10 uM after 7 days by celltiter-glo assay; details: SNB-19, 168 h, read-out: GI
IGROV-1 = experiment: Growth inhibition of human IGROV1 cells after 7 days by celltiter-glo assay; details: IGROV-1, 168 h
[8] = Ratio of compound GI50 to chlorambucil GI50 for human H1299 cells
SK-MEL-28 [9] = experiment: Growth inhibition of human SK-MEL-28 cells at 10 uM after 7 days by celltiter-glo assay; details: SK-MEL-28, 168 h, read-out: GI
HOP-62 = experiment: Growth inhibition of human HOP62 cells after 7 days by celltiter-glo assay; details: HOP-62, 168 h
OVCAR-4 [10] = experiment: Growth inhibition of human OVCAR4 cells after 7 days by celltiter-glo assay; details: OVCAR-4, 168 h
HL-60(TB) = experiment: Growth inhibition of human HL-60(TB) cells at 10 uM after 7 days by celltiter-glo assay; details: HL-60, 168 h, read-out: GI
[11] = Growth inhibition of human Hs 578T cells after 7 days by celltiter-glo assay; details: 168 h
A498 [12] = experiment: Growth inhibition of human A498 cells at 10 uM after 7 days by celltiter-glo assay; details: A498, 168 h, read-out: GI
EKVX [13] = experiment: Growth inhibition of human EKVX cells at 10 uM after 7 days by celltiter-glo assay; details: 168 h, read-out: GI
786-0 = experiment: Growth inhibition of human 786-0 cells after 7 days by celltiter-glo assay; details: 786-0, 168 h
A549 = experiment: Growth inhibition of human A549 cells at 10 uM after 7 days by celltiter-glo assay; details: A549, 168 h, read-out: GI
UACC-62 [14] = experiment: Growth inhibition of human UACC62 cells at 10 uM after 7 days by celltiter-glo assay; details: UACC-62, 168 h, read-out: GI
SF-295 = experiment: Growth inhibition of human SF295 cells at 10 uM after 7 days by celltiter-glo assay; details: SF-295, 168 h, read-out: GI
SW-620 [15] = experiment: Growth inhibition of human SW620 cells at 10 uM after 7 days by celltiter-glo assay; details: SW-620, 168 h, read-out: GI
HCT-15 = experiment: Growth inhibition of human HCT15 cells at 10 uM after 7 days by celltiter-glo assay; details: HCT-15, 168 h, read-out: GI
SF-268 = experiment: Growth inhibition of human SF268 cells after 7 days by celltiter-glo assay; details: SF-268, 168 h
NCI-H460 = experiment: Growth inhibition of human NCI-H460 cells after 7 days by celltiter-glo assay; details: NCI-H460, 168 h
SK-MEL-28 [16] = experiment: Growth inhibition of human SK-MEL-28 cells after 7 days by celltiter-glo assay; details: SK-MEL-28, 168 h
A498 [17] = experiment: Growth inhibition of human A498 cells after 7 days by celltiter-glo assay; details: A498, 168 h
MOLT-4 [18] = experiment: Growth inhibition of human MOLT4 cells after 7 days by celltiter-glo assay; details: MOLT-4, 168 h
TK-10 = experiment: Growth inhibition of human TK10 cells at 10 uM after 7 days by celltiter-glo assay; details: TK-10, 168 h, read-out: GI
SF-539 = experiment: Growth inhibition of human SF539 cells after 7 days by celltiter-glo assay; details: SF-539, 168 h
CAKI-1 = experiment: Growth inhibition of human Caki1 cells at 10 uM after 7 days by celltiter-glo assay; details: CAKI-1, 168 h, read-out: GI

## CON(CCCc1ccc(N(CCCl)CCCl)cc1)C1OC[C@@H](O)[C@@H]1O (stereo partly specified)
OVCAR-4 [1]
  inhibition of growth at 10 µM: 77.2%
OVCAR-8
  inhibition of growth at 10 µM: 68.1%
KM12
  inhibition of growth at 10 µM: 97.6%
OVCAR-5
  inhibition of growth at 10 µM: 111%
SK-MEL-5
  inhibition of growth at 10 µM: 79%
EKVX [2]
  GI50: 37.9 µM
M14
  GI50: 9.25 µM
NCI-H23
  inhibition of growth at 10 µM: 54.4%
Malme-3M
  inhibition of growth at 10 µM: 69.7%
SW-620 [3]
  GI50: 12.4 µM
UACC-62 [4]
  GI50: 1.69 µM
NCI-H226
  GI50: 0.925 µM
NCI/ADR-RES
  inhibition of growth at 10 µM: 61.5%
HCT-116
  GI50: 14.5 µM
SR
  GI50: 0.386 µM
MDA-MB-468
  inhibition of growth at 10 µM: 43.9%
SK-OV-3 [5]
  GI50: 1.5 µM
OVCAR-3
  GI50: 15.3 µM
MOLT-4 [6]
  inhibition of growth at 10 µM: 64.4%
SK-OV-3 [7]
  inhibition of growth at 10 µM: 72.8%
SNB-75
  GI50: 19.5 µM
NCI-H322M
  inhibition of growth at 10 µM: 99%
SNB-19
  inhibition of growth at 10 µM: 65.8%
IGROV-1
  GI50: 1.21 µM
[8]
  RatioGI50: 13
SK-MEL-28 [9]
  inhibition of growth at 10 µM: 117%
HOP-62
  GI50: 8.28 µM
OVCAR-4 [10]
  GI50: 29.2 µM
HL-60(TB)
  inhibition of growth at 10 µM: 68.3%
[11]
  GI50: 24.7 µM
A498 [12]
  inhibition of growth at 10 µM: 114%
EKVX [13]
  inhibition of growth at 10 µM: 91.2%
786-0
  GI50: 6.16 µM
A549
  inhibition of growth at 10 µM: 69.7%
UACC-62 [14]
  inhibition of growth at 10 µM: 52.1%
SF-295
  inhibition of growth at 10 µM: 56.6%
SW-620 [15]
  inhibition of growth at 10 µM: 68.1%
HCT-15
  inhibition of growth at 10 µM: 77.1%
SF-268
  GI50: 1.5 µM
NCI-H460
  GI50: 1.7 µM
SK-MEL-28 [16]
  GI50: 36.5 µM
A498 [17]
  GI50: 21.8 µM
MOLT-4 [18]
  GI50: 1.22 µM
TK-10
  inhibition of growth at 10 µM: 97.2%
SF-539
  GI50: 8.8 µM
CAKI-1
  inhibition of growth at 10 µM: 13.6%
